Data on seven molecules can be found in patent publication US4109081A, “1-(3,5-Disubstituted-2,4,6-triiodophenyl)-3-(polyhydroxy-alkyl)urea compounds” (Mallinckrodt, Inc., priority 1975, dated 1978).

SMILES strings stand for the structures. In brackets after ≈: the same amount, converted by molar mass. Where two headings read alike, the source gives them in different places.

Series [1] in a line: aqueous solubility (solubility of the product in water). In kind it is physicochemical.
In the next series the test system is dogs. Put plainly: intravenous pyelographic studies in dogs. In kind it is in vivo, dog. The conditions noted are these: for visualization of kidneys, ureters and urinary bladder: 140 mg. I/kg., dogs. On the procedure: The compounds of Examples I, II and III were employed in intravenous pyelographic studies carried out in dogs. At a dosage of 140 mg. […] At a dosage of 167 mg.

Series [2] has as its system Swiss Albino mice. The series can be described thus: Intracerebral Toxicity in Mice. Type of series: in vivo, mouse (Swiss Albino, Charles River). The conditions noted are these: intracerebral injection, seven day observation; Example IV at 4.3% iodine, Example V at 13.3% iodine. On the procedure: (§1) carried out in aqueous solutions of the compounds of Examples IV and V.
Swiss Albino mice (charles River) were used. Fixed volumes of aqueous solutions of the iodinated compounds were injected intracerebrally via a 27 gauge needle (1/4 inch in length) according to the method of Haley et al. (Br. J. of Pharmac. 12:12-15, 1957). In the case of the compound of Example IV, a solution of the compound having an iodine concentration of 4.3% was employed and in the case of the compound of Example V, a solution of the compound having an iodine concentration of 13.3% was employed. The animals were observed immediately following injections and daily throughout a seven day observation period. The LD50 values were calculated by the method of Litchfield and Wilcoxon (J. of Pharmac. and Exptl. Therap. 96:99-113, 1949).

In series [3] the test system is Swiss Albino mice. Put plainly: Acute Intravenous Toxicity Studies in Mice. The conditions noted are these: lateral tail vein, iodine concentration 28.2%, pH 7.0-7.2, approximately 1 ml./min., seven day observation. In kind it is in vivo, mouse (Swiss Albino, Charles River). On the procedure:
as §1
Swiss Albino mice (Charles River) were dosed in the lateral tail vein with aqueous solutions of the above-noted iodinated compounds of Examples I, II and III having an iodine concentration of 28.2% with a pH of 7.0-7.2. The solutions were injected at the rate of approximately 1 ml./min. […] The LD50 values were calculated by the method of Litchfield and Wilcoxon (J. of Pharmac. and Exptl. Therap. 96: 99-113, 1949).

The next series concerns Sprague-Dawley rats. Put plainly: Intracisternal Toxicity in Rats. In kind it is in vivo, rat (Sprague-Dawley, Carworth). The conditions noted are these: two day observation, Example IV at 7.43% iodine, Example V at 13.3% iodine.
Source text: as §1
Sprague-Dawley (Carworth) rats were used. In the case of the compound of Example IV, a solution of the compound having an iodine concentration of 7.43% was employed and in the case of the compound of Example V, a solution of the compound having an iodine concentration of 13.3% was employed. The method used was a variation of the procedure outlined by Melartin et al. (Invest. Rad. 5: 13-21, 1970). After dosing, the animals were housed individually and observed for immediate reactions and periodically for a two day observation period. The LD50 values were calculated according to the method of Litchfield and Wilcoxon (J. of Pharmac. and Exptl. Therap. 96:99-115, 1949).

Setting [4] is: water, read-out: solubility of the product in water.

For `COc1c(I)cc(I)c(NC(=O)N(C)C[C@H](O)[C@@H](O)[C@H](O)[C@H](O)CO)c1I` [3-[3-methoxy-2,4,6-triiodophenyl]-1-methyl-1-(D-gluco-2,3,4,5,6-pentahydroxyhexyl)urea, reference compound], the solubility – broadly, how much of the substance goes into solution per volume – in series [1] (insufficiently water-soluble for toxicity testing in aqueous solution, read-out: water solubility) is less than 10 mg/mL.

Take `CNC(=O)c1c(I)c(NC(=O)N(C)C[C@H](O)[C@@H](O)[C@H](O)[C@H](O)CO)c(I)c(C(=O)N(C)C)c1I` [Example I, 3-[3-(N,N-Dimethylcarbamyl)-2,4,6-triiodo-5-(N-methylcarbamyl)phenyl]-1-methyl-1-(D-gluco-2,3,4,5,6-pentahydroxylhexyl)urea]: in the series on dogs (five minutes after injection), the “visualization of kidneys, ureters and urinary bladder” value is “good visualization of kidneys, ureters and urinary bladder”. For the same molecule, in the series on Swiss Albino mice [2], the “LD50 Intracerebral (Mice)” value is 1,500 mg. I/kg. body wt. In addition, the “LD50 I.V. (Mice)” value with Swiss Albino mice [3] is reported as 1,878 mg. I/kg. body wt. The solubility in series [1] (setting [4]) is no less than 1000 mg/mL. Besides, in the series on Sprague-Dawley rats, the “LD50 Intracisternal (Rats)” value is given as 21 mg. I/kg. body wt.

For the molecule `CNC(=O)c1c(I)c(NC(=O)N[C@@H](C=O)[C@@H](O)[C@H](O)[C@H](O)CO)c(I)c(N(C)C(C)=O)c1I` [Example III, 5-{3-[2-(D-Gluco-2-deoxy-3,4,5,6-tetrahydroxy-1-oxohexyl)]ureido}-2,4,6-triiodo-N-methyl-3-(N-methylacetamido)-benzamide], the “visualization of the kidneys and ureters” value in the series with dogs (167 mg. I/kg., five minutes after injection, dog) is listed as “better visualization of the kidneys with some visualization of the ureters”. Further, the “visualization of the kidney” value in the series with dogs (167 mg. I/kg., one minute after injection, dog) is recorded as “a shadow of the kidney”. Further, the “LD50 Intracerebral (Mice)” value with Swiss Albino mice [2] is 1,460 mg. I/kg. body wt. Further, the “LD50 I.V. (Mice)” value in the series on Swiss Albino mice [3] is 6,800 mg. I/kg. body wt. In series [1] (setting [4]), the solubility is no less than 1000 mg/mL. Further, in the series on Sprague-Dawley rats, the “LD50 Intracisternal (Rats)” value is given as less than 40 mg. I/kg. body wt.

With `CNC(=O)c1c(I)c(NC(=O)N[C@@H](C=O)[C@@H](O)[C@H](O)[C@H](O)CO)c(I)c(C(=O)N(C)C)c1I` [Example II], the “visualization of kidneys, ureters and urinary bladder” value in the series with dogs (five minutes after injection) was “good visualization of kidneys, ureters and urinary bladder”. In addition, in the series on Swiss Albino mice [2], the “LD50 Intracerebral (Mice)” value is 1,720 mg. I/kg. body wt. For the same molecule, the “LD50 I.V. (Mice)” value with Swiss Albino mice [3] is listed as 4,817 mg. I/kg. body wt. Also, the solubility in series [1] (setting [4]) is no less than 1000 mg/mL. Further, in the series on Sprague-Dawley rats, the “LD50 Intracisternal (Rats)” value was 17 mg. I/kg. body wt.

Turning to `CNC(=O)c1c(I)c(NC(C)=O)c(I)c(NC(=O)N[C@@H](C=O)[C@@H](O)[C@H](O)[C@H](O)CO)c1I` [Example IV], in the series with Swiss Albino mice [2], the “LD50 Intracerebral (Mice)” value is reported as greater than 350 mg. I/kg. body wt. Besides, in series [1] (setting [4]), the solubility is 180 to 200 mg/mL (≈ 228 to 253 mM). Further, in the series with Sprague-Dawley rats, the “LD50 Intracisternal (Rats)” value is listed as 62 mg. I/kg. body wt.

As to `CNC(=O)c1c(I)c(NC(=O)N[C@@H](C=O)[C@@H](O)[C@H](O)[C@H](O)CO)c(I)c(C(=O)NC)c1I` [Example V, 5-{3-[2-(D-gluco-2-deoxy-3,4,5,6-tetrahydroxy-1-oxohexyl)]ureido}-2,4,6-tri-iodo-N,N'-dimethylisophthalamide], the “LD50 Intracerebral (Mice)” value in the series with Swiss Albino mice [2] was greater than 899 mg. I/kg. body wt. Moreover, in series [1] (water, depending upon the method employed, read-out: aqueous solubility), the solubility was 27 to 80 mg/mL (≈ 34.2 to 101 mM). Moreover, in the series on Sprague-Dawley rats, the “LD50 Intracisternal (Rats)” value is listed as greater than 266 mg. I/kg. body wt.

In the case of `CNC(=O)c1c(I)c(NC(=O)N[C@@H](CO)[C@@H](O)[C@H](O)[C@H](O)CO)c(I)c(N(CCO)C(C)=O)c1I` [Example VI, 3-{3-[1-(D-gluco-2-deoxy-1,3,4,5,6-pentahydroxyhexyl)]ureido}-5-[N-(2-hydroxyethyl)acetamido]-2,4,6-triiodo-N-methylbenzamide], the solubility in series [1] (water, read-out: water solubility) was roughly 780 mg/mL (≈ 933 mM).
